Test systems include NCI-H226; MDA-MB-231; COLO 205; OVCAR-3; IGROV-1; T47D; 786-0; SK-OV-3; KM12; Hs-578T; UACC-62; SF-539; MOLT-4; SN12C; LOX IMVI; SNB-19; MCF7; M14; SK-MEL-5; A549.
Holding throughout (test): NCI tumour cell line growth inhibition, 48 h

These results are taken from ChEMBL document CHEMBL1201862, “PubChem BioAssay data set” (2004).

Structures are written as SMILES.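 Exposure lasted 48 hours, with cells grown in 96-well plates and compounds tested at five concentrations. GI50 is the concentration that inhibits growth by half.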 Active and inactive are the calls of the source. Rule as the data show it: active = GI50 up to about 1.1 µM and inactive = higher.

For `C=C1C[C@@H]2O[C@H]3[C@H]4[C@@H](C[C@@H](C)[C@@H](OC(C)=O)[C@H]42)[C@@H](C)CO[C@@]3(C)[C@H](OC(C)=O)C[C@H]1O`, the GI50 in the experiment with NCI-H226 was > 100 µM (inactive); in the experiment on MDA-MB-231, > 100 µM (inactive); with COLO 205 it was 88.1 µM (inactive); with OVCAR-3, 65.2 µM (inactive); in the experiment with IGROV-1 it was > 100 µM (inactive); with T47D it was > 100 µM (inactive). Moreover, the GI50 in the experiment with 786-0, in the experiment with SK-OV-3, in the experiment with KM12, in the experiment on Hs-578T, in the experiment with UACC-62 and with SF-539 was > 100 µM (inactive) in each case. Also, the GI50 with MOLT-4 was 53 µM (inactive); in the experiment on SN12C, > 100 µM (inactive); in the experiment on LOX IMVI, 17.1 µM (inactive); in the experiment on SNB-19, > 100 µM (inactive); in the experiment with MCF7, 84.5 µM (inactive); with M14, > 100 µM (inactive). The GI50 in the experiment with SK-MEL-5 and with A549 was > 100 µM (inactive) each time.
As to `COc1cc2ncnc(Nc3cccc(Cl)c3)c2cc1OC` [TYRPHOSTIN AG-1478], the GI50 in the experiment with NCI-H226 was 2.4 µM (inactive); in the experiment with MDA-MB-231, 14.2 µM (inactive); in the experiment on COLO 205, 17.9 µM (inactive); in the experiment on OVCAR-3, 3.05 µM (inactive); with IGROV-1 it was 0.0736 µM (active); in the experiment on T47D it was 9.55 µM (inactive). For the same compound, the GI50 was 6.28 µM (inactive) in the experiment on 786-0; 0.472 µM (active) in the experiment with SK-OV-3; 5.73 µM (inactive) in the experiment on KM12; 3.57 µM (inactive) with Hs-578T; 7.14 µM (inactive) with UACC-62; 15.9 µM (inactive) in the experiment on SF-539. The GI50 in the experiment with MOLT-4 is 16.4 µM (inactive); in the experiment on SN12C it was 8.91 µM (inactive); in the experiment with LOX IMVI, 11.5 µM (inactive); in the experiment with SNB-19, 21 µM (inactive); in the experiment with MCF7 it was 21.5 µM (inactive); in the experiment with M14 it was 7.16 µM (inactive). The GI50 with SK-MEL-5 is 6.1 µM (inactive); in the experiment on A549 it was 10.6 µM (inactive).
`CC(C)(C)N/N=C(\C(=O)Nc1ccc([N+](=O)[O-])cc1[N+](=O)[O-])c1nc2ccc([N+](=O)[O-])cc2nc1O`: the GI50 was 23.7 µM (inactive) in the experiment with NCI-H226; > 100 µM (inactive) with MDA-MB-231; 24.5 µM (inactive) in the experiment with COLO 205; > 100 µM (inactive) in the experiment with OVCAR-3; > 100 µM (inactive) in the experiment on IGROV-1; 36.3 µM (inactive) in the experiment on T47D. Further, the GI50 in the experiment with 786-0 was > 100 µM (inactive); in the experiment with SK-OV-3 it was > 100 µM (inactive); in the experiment on KM12, 34.4 µM (inactive); in the experiment on Hs-578T, 82.6 µM (inactive); in the experiment on UACC-62, > 100 µM (inactive); in the experiment with SF-539 it was > 100 µM (inactive). The GI50 in the experiment on MOLT-4 was 35.2 µM (inactive); with SN12C, > 100 µM (inactive); with LOX IMVI it was 58.7 µM (inactive); in the experiment with SNB-19, > 100 µM (inactive); in the experiment on MCF7, 79.6 µM (inactive); in the experiment on M14 it was > 100 µM (inactive). The results for the GI50 in the experiment on SK-MEL-5 and in the experiment with A549 were 13.6 µM (inactive) and > 100 µM (inactive), respectively.
Regarding `COC(c1ccsc1)C(C#N)(C#N)/N=C/c1ccsc1` (stereo not given), the GI50 in the experiment with NCI-H226 was 21.6 µM (inactive); in the experiment on MDA-MB-231, 7.4 µM (inactive); with COLO 205, 16.5 µM (inactive); in the experiment with OVCAR-3, 12.6 µM (inactive); in the experiment on IGROV-1, 17.1 µM (inactive); in the experiment with T47D, 13.9 µM (inactive). The GI50 with 786-0 is 17.3 µM (inactive); in the experiment with SK-OV-3, 21.1 µM (inactive); with KM12 it was 16.7 µM (inactive); with Hs-578T, 22.1 µM (inactive); with UACC-62, 15.2 µM (inactive); in the experiment on SF-539, 15.7 µM (inactive). The GI50 in the experiment with MOLT-4 is 13.9 µM (inactive); in the experiment on SN12C, 16.7 µM (inactive); in the experiment on LOX IMVI, 10.3 µM (inactive); with SNB-19, 23 µM (inactive); in the experiment on MCF7, 2.18 µM (inactive); in the experiment with M14, 17.8 µM (inactive). Moreover, the GI50 in the experiment with SK-MEL-5 is 13.6 µM (inactive); with A549, 30.5 µM (inactive).
Take `O=C1Nc2ccccc2/C1=N\c1cccc2ncccc12`: the GI50 was > 100 µM (inactive) with NCI-H226; > 100 µM (inactive) in the experiment with MDA-MB-231; > 100 µM (inactive) with COLO 205; 63.7 µM (inactive) in the experiment on OVCAR-3; 51.1 µM (inactive) with IGROV-1; > 100 µM (inactive) in the experiment on T47D. The GI50 in the experiment on 786-0 is > 100 µM (inactive); with SK-OV-3, 26.7 µM (inactive); in the experiment with KM12, 95.1 µM (inactive); in the experiment on Hs-578T, 39.1 µM (inactive); in the experiment on UACC-62, > 100 µM (inactive); with SF-539, > 100 µM (inactive). The GI50 with MOLT-4 was 30 µM (inactive); with SN12C it was > 100 µM (inactive); in the experiment on LOX IMVI, 27.4 µM (inactive); with SNB-19 it was > 100 µM (inactive); in the experiment on MCF7, 50.5 µM (inactive); in the experiment on M14 it was > 100 µM (inactive). For the same compound, the GI50 in the experiment with SK-MEL-5 was 67 µM (inactive); in the experiment on A549 it was 81.5 µM (inactive).
Regarding `CC(C)(N)CO[C@H]1C[C@H]2CC[C@@]1(C)C2(C)C`, the GI50 in the experiment with NCI-H226 was 24.7 µM (inactive); in the experiment with MDA-MB-231 it was 17.8 µM (inactive); in the experiment on COLO 205, 16.1 µM (inactive); with OVCAR-3, 49.8 µM (inactive); in the experiment on IGROV-1 it was 39.2 µM (inactive); in the experiment on T47D, 16 µM (inactive). Besides, the GI50 in the experiment with 786-0 was 16.2 µM (inactive); in the experiment on SK-OV-3, 27.8 µM (inactive); in the experiment with KM12, 18.1 µM (inactive); in the experiment on Hs-578T, 27.5 µM (inactive); in the experiment with UACC-62 it was 18.2 µM (inactive); with SF-539, 22.4 µM (inactive). Moreover, the GI50 in the experiment on MOLT-4 was 26.3 µM (inactive); in the experiment on SN12C, 39.9 µM (inactive); in the experiment on LOX IMVI it was 17.2 µM (inactive); in the experiment on SNB-19, 24.8 µM (inactive); with MCF7 it was 19.4 µM (inactive); in the experiment on M14 it was 16 µM (inactive). Moreover, the figures for the GI50 in the experiment with SK-MEL-5 and with A549 were 18.2 µM (inactive) and 38.5 µM (inactive), respectively.
